The experiment deals with T1, PolθΔL (Homo sapiens, UniProt O75417, C1895G/DEL1861-1870/DEL1873-1894/DEL1918-1929/DEL2146-2157/DEL2161-2173/DEL2261-2287/DEL2291-2305/DEL2513-2514/DEL2518-2524/F2289G/F2526G/L1930G/L2158G/L2516G/M2525G/P1932S/P1933G/R2175G/R2306G/S1934G/V1931G).
T1 construct: The gene encoding Polθ-pol (residues 1819–2590) was cloned into a pSUMOstar vector; 6xHis (N, cleaved yes); SUMO (N); made in house; host or cells: E. coli BL21(DE3)
Kind of experiment: PolθΔL primer extension. The format is biochemical.

T1 sequence (O75417 with tags, fused parts or gaps with the stated changes): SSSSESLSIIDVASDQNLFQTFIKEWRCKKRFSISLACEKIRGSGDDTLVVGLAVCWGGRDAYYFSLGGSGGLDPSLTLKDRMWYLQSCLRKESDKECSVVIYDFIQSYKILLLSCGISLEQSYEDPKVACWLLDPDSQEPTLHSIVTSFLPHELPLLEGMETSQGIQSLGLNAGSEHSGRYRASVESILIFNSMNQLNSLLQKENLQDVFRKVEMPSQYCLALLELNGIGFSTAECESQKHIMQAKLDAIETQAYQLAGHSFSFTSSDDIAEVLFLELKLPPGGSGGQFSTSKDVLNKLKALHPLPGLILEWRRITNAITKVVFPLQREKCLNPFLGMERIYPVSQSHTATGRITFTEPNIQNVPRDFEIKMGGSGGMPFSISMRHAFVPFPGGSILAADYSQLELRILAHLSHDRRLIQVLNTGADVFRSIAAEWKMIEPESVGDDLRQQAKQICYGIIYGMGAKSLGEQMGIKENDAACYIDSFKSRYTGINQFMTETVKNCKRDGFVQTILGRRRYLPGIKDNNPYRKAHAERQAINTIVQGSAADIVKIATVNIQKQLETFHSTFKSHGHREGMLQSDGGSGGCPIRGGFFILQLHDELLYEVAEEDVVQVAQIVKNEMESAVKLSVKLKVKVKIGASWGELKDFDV

For `CN(C(=O)Oc1ccc(C(F)(F)F)cc1C(F)(F)F)c1ccc(F)cc1` [MC160385], the “inhibition of PolθΔL primer extension” value is recorded as “inhibits”.

Values taken from article PMC10997755, “Discovery of a small-molecule inhibitor that traps Polθ on DNA and synergizes with PARP inhibitors” (Nature Communications, 2024).
